In patent US20170071840A1, “POLYPHENOL/FLAVONOID COMPOSITIONS AND METHODS OF FORMULATING ORAL HYGIENIC PRODUCTS” (VIZURI HEALTH SCIENCES LLC, priority 2015, published 2017):
Each block holds one compound with its values, some of them ahead of it.

How the values were obtained:
[1] = Solubility in PS80 via the thermal processing method; type: physicochemical
[2] = Heat solubilization in Kolliphor RH-40 / Polysorbate 80; type: physicochemical; settings: curcumin as co-solubilizer
[3] = Saliva levels of apigenin in chronic 1% apigenin toothpaste users (Example 12); type: in vivo, human
Procedure: Two subjects who have used PeroxiCare® with apigenin at a 1% concentration on a chronic basis provided saliva samples at:
Saliva was collected at each time point in 50 ml Falcon tubes and immediately transferred to a freezer. All samples were transported to Tufts University within 24 hours of collection. Apigenin in saliva was quantified using high performance liquid chromatograph (HPLC) with electrochemical detection (ECD). Apigenin in 1 ml saliva was extracted using 3 ml acetonitrile. After 2 min of rigorous vortexing, the mixture was spun at 2,000 rpm for 15 min at 4° C. Supernatant was dried under N2 gas, reconstituted with mobile phase A, and analyzed for apigenin with HPLC-ECD. The limit of quantification (LOQ) for apigenin and EGCG in this assay is 15 and 25 ng/ml saliva, respectively.

Solubility in water = type: physicochemical; settings: 20° C.
[4] = pH for stable aqueous microemulsion; type: physicochemical; settings: nonionic surfactants Polysorbate 80 and Cremophor/Kolliphor RH-40
From the text: In one embodiment, a flavonoid/polyphenol microemulsion can be made as follows: • The mixing of a flavonoid/polyphenol with an alkali metal component (e.g., alkali metal hydroxide(s) and/or alkaline metal salt(s)) to form an alkali metal flavonoid/polyphenol salt within an aqueous solution. • Adding a surfactant in the ratio from about 5 to 20 wt. % of the flavonoid/polyphenol to 95 to 80 wt. % of a surfactant; preferable a nonionic surfactant. • This mixture is thoroughly stirred to form a uniform clear solution. • Adjusting (e.g., acidifying) the alkali metal flavonoid/polyphenol salt with an agent (e.g., an acidic agent such as acetic acid and/or hydrochloric acid) to a pH level required to form a clear and stable microemulsion.
Stable microemulsions with apigenin and the nonionic surfactants, Polysorbate 80 and Cremophor/Kolliphor RH-40, were achieved provided a pH level of 8.0 to 8.5 was maintained. For luteolin, it as determined that a pH of 7 was required to maintain a stable aqueous microemulsion; and for resveratrol, a pH of >4.5 to 7.5.

[5] = Solubilization in Listerine mouth rinse; type: physicochemical
Procedure: 100 Grams of the Listerine® Resveratrol Containing Mouth Rinse Formulation was Prepared as Follows: • 1. 98.4 grams of the Listerine® caramel colored mouth rinse was added to a 300 ml Pyrex glass beaker. The pH of the Listerine® caramel colored mouth rinse was initially determined via pH indicator strips to be decidedly acidic at approximately 4.5. • 2. 1.2 grams of Resveratrol powder was added to the solution of Step 1. • 3. About 0.2 grams of fine NaOH crystals were added to the mixture from Step 2 and thoroughly mixed. A uniformly caramel colored blend resulted with a measured pH of ˜10. […] The pH of the mixture from Step 3 was adjusted to a pH 6.5 by the addition of about 0.2 grams of citric acid crystals. A transparent solution resulted with a resveratrol concentration of 1.2 mg/ml.
• 1. 98.6 grams of the Listerine® caramel colored mouthrinse was added to a 300 ml Pyrex glass beaker. The pH of the Listerine® caramel colored mouthrinse was initially determined via pH indicator strips to be decidedly acidic at approximately 4.5. • 2. 1.2 grams of Luteolin powder was added to the solution of Step 1. • 3. About 0.2 grams of fine NaOH crystals were added to the mixture from Step 2 and thoroughly mixed. A uniformly caramel colored blend resulted with a measured pH of ˜10. […] The pH of the mixture from Step 2 was adjusted to a pH 8 by the addition of about 0.2 grams of citric acid crystals. […]

stable apigenin concentrate in PS80 ([1]; 5.0 wt. % apigenin in PS80, heated, cooled to ambient): 50 mg/mL
apigenin solubilized in PS 80 [2]: more than 5%
apigenin solubilized in RH-40 [2]: more than 5%
persistence of apigenin levels in saliva post-brushing [3]: at least 8 hours
Structure (SMILES): O=c1cc(-c2ccc(O)cc2)oc2cc(O)cc(O)c12 [Apigenin, 4′,5,7,-trihydroxyflavone]

Water Solubility (Solubility in water): ~5 mg/mL
PS80 Solubility ([1]; 20° C., thermal processing, not the maximum solubility levels): 50 mg/mL
Structure (SMILES): O.Oc1cc(O)c2c(c1)O[C@H](c1ccc(O)c(O)c1)[C@@H](O)C2 [Catechin]

Structure (SMILES): O=c1cc(-c2ccc(O)c(O)c2)oc2cc(O)cc(O)c12 [luteolin, 3′,4′,5,7-tetrahydroxyflavone]
pH level for stable microemulsion [4]: 7
concentration in transparent solution ([5]; Listerine mouthrinse, pH 8): 1500 µg/mL

concentration in transparent solution ([5]; Listerine mouth rinse, pH 6.5): 1200 µg/mL
Structure (SMILES): Oc1ccc(C=Cc2cc(O)cc(O)c2)cc1 [resveratrol]
